{"source": "patent EP0238905B1", "about": "“4-(2-pyrimidinyl)-1-piperazinyl heterocyclic carbonyl derivatives” (MERRELL DOW PHARMACEUTICALS INC., priority 1986, dated 1987)", "target": "T1, 5-HT1A recognition sites (Rattus norvegicus, UniProt P19327)", "T1 construct": "Tissues from 4-8 rats are pooled and homogenized in 70 vol Tris-HCl buffer; from tissue; host or cells: Sprague-Dawley rat frontal cortex membrane homogenate", "T1 sequence (P19327 1-422)": "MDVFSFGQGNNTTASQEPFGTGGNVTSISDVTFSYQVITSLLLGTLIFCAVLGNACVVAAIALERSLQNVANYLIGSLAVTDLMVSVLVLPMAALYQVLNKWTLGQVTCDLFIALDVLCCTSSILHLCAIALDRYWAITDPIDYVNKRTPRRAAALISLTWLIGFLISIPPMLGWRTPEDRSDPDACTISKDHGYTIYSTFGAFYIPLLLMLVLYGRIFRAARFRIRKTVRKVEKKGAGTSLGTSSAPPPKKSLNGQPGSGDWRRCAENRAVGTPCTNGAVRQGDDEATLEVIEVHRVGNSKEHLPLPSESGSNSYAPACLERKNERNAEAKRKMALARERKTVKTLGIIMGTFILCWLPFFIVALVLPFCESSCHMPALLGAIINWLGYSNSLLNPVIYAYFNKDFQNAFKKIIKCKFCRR", "assay": "In vitro 5-HT1A radioligand binding ([³H]-8-OH-DPAT)", "parameters": "species or system Sprague-Dawley rat", "conditions": "rat frontal cortex homogenate; radioligand [³H]-8-OH-DPAT; 37°C for 15 min; results expressed as pIC₅₀; read-out: 5-HT1A Binding Affinity Rat Brain cortex (converted)", "experimental": "Radioligand binding studies of the 5-HT1A recognition sites are conducted in the following manner.\nRadioactivity is measured following extraction into Aquasol-Z (NEN) at an efficiency of 45-50%.", "data": [{"smiles": "CC1(C)CC(=O)OC(=NCCCCN2CCN(c3ncccn3)CC2)N1", "note": "[Compound B, 2-[4-[4-(2-pyrimidinyl)-1-piperazinyl]butylimino]-tetrahydro-4,4-dimethyl-6H-1,3-oxazine-6-one]", "values": [{"measurement": "IC50", "result": 479, "unit": "nM"}]}]}
